Laboratory results taken from patent US7183267B2, “β-lactamase inhibitors and methods of use thereof” (priority 2003, dated 2007).
In brackets after ≈: the same amount, converted by molar mass.

Experiments:
Format in all cases: cell-based
[1] = test system: methicillin resistant S. aureus ATCC 33591 (MRSA-ATCC); experiment: Matrix system: oxacillin plus β-lactamase inhibitor, MRSA-ATCC; conditions: for MIC of oxacillin: matrix study
Description: (§1) To each well of a 96 well microtiter plate was added 47.5 μl of MHB. A volume of 2.5 μl of each dilution of oxacillin was then transferred to appropriate wells containing the medium. All wells, except the sterility control wells, were then inoculated with 50 μl of a diluted cell suspension to give a final volume of 100 μl and a final cell density of 5×10^4 CFU/well. The volume in the sterility control wells was adjusted to 100 μl with MHB. A sterile pipette tip was used to mix the contents of each well (one tip was used going from the low to the high concentration in the same column). The microtiter plates were covered with the lids and were placed in large Stratagene Big Blue plates (Cat. # 400041). Four large kimwipes moistened with tap water were placed near the edges of the Stratagene plates to prevent evaporation of the medium. The microtiter plates were incubated for at least 24 hours at 35° C. The plates were then evaluated for growth in each well. Controls included: medium sterility and negative control (medium and bacteria only).
(§2) A numerical code was used to evaluate the extent of growth as indicated below. • 0: absence of growth • 1: barely visible (faint) growth • 2: fair growth but less than the negative solvent control • 3: growth is equivalent to the negative solvent control.
(§3) The lowest dose at which no visible growth is observed was determined to be the MIC value.
The effect of the four compounds of the present invention on oxacillin resistance of the MRSA strains was determined using a matrix system. The β-lactamase inhibitors were tested at 5 doses against up to eleven concentrations of oxacillin. […] A 96-well microtiter plate was used for the matrix system. The procedure was identical to that described above for the MIC determination, with the exception that both oxacillin and one each of the β-lactamase inhibitors was added, 2.5 μl each, to the wells prior to addition of the test organisms.
Matrix Study:Oxacillin and Compound FL201 with MRSA-ATCC
Matrix Study: Oxacillin and Compound Fl202 with MRSA-ATCC

[2] = test system: methicillin resistant S. aureus ATCC 33591 (MRSA-ATCC); experiment: MIC assay, broth microdilution, MRSA-ATCC; conditions: Staphylococcus aureus, 24 h
Description: (1) methicillin resistant S. aureus ATCC 33591 (MRSA-ATCC). This strain was obtained from American Type Culture Collection (ATCC), Manassas, Md.;
(§4) The strains were processed according to procedures recommended by ATCC, or procedures that are routinely used. Single colonies of each organism were picked for purification to generate pure working cultures. Prior to each experiment each strain was subcultured on a fresh Mueller-Hinton agar plate (MHA).
(§5) Inocula for the MIC assays were prepared by transferring a tiny portion of one colony from a MHA plate to 2 ml of Mueller-Hinton broth (MHB) such that the estimated cell density was about 10^7 colony forming unit (CFU)/ml. This cell suspension was then further diluted 10-fold (to 10^6 CFU/ml) by transferring the 2 ml cell suspension to 18 ml of MHB. Addition of 50 μl of this dilute cell suspension to 50 μl of growth medium yielded the desired cell density, namely about 5×10^4 CFU/well, or 5×10^5 CFU/ml.
(§6) The MIC value of oxacillin was determined using the broth microdilution procedure recommended by the National Committee of Clinical Laboratory Standards (NCCLS, 2000).
(§7) The MIC experiments were performed in duplicate in 96-well microtiter plates using MHB. A stock solution of 2.6 mg/0.5 ml was prepared in dimethylsulfoxide (DMSO). A total of 8 two-fold serial dilutions were made with DMSO. Initial oxacillin doses used were (μg/ml): 64, 32, 16, 8, 4, 2, 1, and 0.5. Doses were adjusted in the confirmatory experiment, if needed, in order to establish an actual MIC value.
as §1
(§8) The procedure used to determine the antimicrobial activity of the compounds of the present invention was identical to the broth microdilution procedure described above with the exception of the preparation of the stock solutions. Stock solution at concentration of 40.96 mg/0.5 ml was prepared in DMSO for each of the compounds. A total of 8 two-fold dilutions were then made in DMSO. A volume of 2.5 μl of each dilution was delivered to appropriate wells. The initial doses used were (μg/ml): 512, 256, 128, 64, 32, 16, 8, and 4.
as §2, §3
(§9) MIC assays were performed with oxacillin and the four compounds. Each of the compounds was tested at the following 8 doses (μg/ml): 512, 256, 128, 64, 32, 16, 8, and 4. Oxacillin was tested at the following 8 doses (μg/ml): 64, 32, 16, 8, 4, 2, 1, and 0.5.

[3] = test system: methicillin resistant S. aureus from Stanford University Hospital (MRSA-SU); experiment: MIC assay, broth microdilution, MRSA-SU; conditions: Staphylococcus aureus, MRSA, 24 h
Source text: (2) methicillin resistant S. aureus from Stanford University Hospital Clinical Microbiology/Virology Laboratory (MRSA-SU). […] Such Staphylococci are also resistant to all penicillins, and all cephalosporins, in addition to all β-lactamase inhibitor combinations (including ampicillin/sulbactarn, amoxicillin/clavulanic acid, piperacillin/tazobactam), imipenem, and meropenem; and
as §4, §5, §6, §7, §1, §8, §2, §3, §9

[4] = test system: methicillin sensitive S. aureus ATCC 25923 (MSSA); experiment: MIC assay, broth microdilution, MSSA; conditions: Staphylococcus aureus, 24 h
Description: (3) methicillin sensitive S. aureus ATCC 25923 (MSSA). This strain was obtained from ATCC and was used as a control.
as §4, §5, §6, §7, §1, §8, §2, §3, §9

Compound: O=C(OCc1ccccc1)c1cc(B(O)O)cc([N+](=O)[O-])c1 [Compound F1201]
- MIC of oxacillin ([1]; with compound 1 μg/ml): 16 µg/mL
- MIC of oxacillin ([1]; with compound 2 μg/ml): 2 µg/mL
- MIC of oxacillin ([1]; with compound 4 μg/ml): 0.5 µg/mL
- MIC of oxacillin ([1]; with compound 8 μg/ml): <0.064 µg/mL
- extent of growth (numerical code) ([1]; oxacillin 0 μg/ml + compound 1 μg/ml): 3
- extent of growth (numerical code) ([1]; oxacillin 0 μg/ml + compound 2 μg/ml): 3
- extent of growth (numerical code) ([1]; oxacillin 0 μg/ml + compound 4 μg/ml): 2
- extent of growth (numerical code) ([1]; oxacillin 0 μg/ml + compound 8 μg/ml): 1
- extent of growth (numerical code) ([1]; oxacillin 0 μg/ml + compound 16 μg/ml): 0
- extent of growth (numerical code) ([1]; oxacillin 0.064 μg/ml + compound 1 μg/ml): 1
- extent of growth (numerical code) ([1]; oxacillin 0.064 μg/ml + compound 2 μg/ml): 1
- extent of growth (numerical code) ([1]; oxacillin 0.064 μg/ml + compound 4 μg/ml): 1
- extent of growth (numerical code) ([1]; oxacillin 0.064 μg/ml + compound 8 μg/ml): 0
- extent of growth (numerical code) ([1]; oxacillin 0.064 μg/ml + compound 16 μg/ml): 0
- extent of growth (numerical code) ([1]; oxacillin 0.125 μg/ml + compound 1 μg/ml): 1
- extent of growth (numerical code) ([1]; oxacillin 0.125 μg/ml + compound 2 μg/ml): 1
- extent of growth (numerical code) ([1]; oxacillin 0.125 μg/ml + compound 4 μg/ml): 1
- extent of growth (numerical code) ([1]; oxacillin 0.125 μg/ml + compound 8 μg/ml): 0
- extent of growth (numerical code) ([1]; oxacillin 0.125 μg/ml + compound 16 μg/ml): 0
- extent of growth (numerical code) ([1]; oxacillin 0.25 μg/ml + compound 1 μg/ml): 1
- extent of growth (numerical code) ([1]; oxacillin 0.25 μg/ml + compound 2 μg/ml): 1
- extent of growth (numerical code) ([1]; oxacillin 0.25 μg/ml + compound 4 μg/ml): 1
- extent of growth (numerical code) ([1]; oxacillin 0.25 μg/ml + compound 8 μg/ml): 0
- extent of growth (numerical code) ([1]; oxacillin 0.25 μg/ml + compound 16 μg/ml): 0
- extent of growth (numerical code) ([1]; oxacillin 0.5 μg/ml + compound 1 μg/ml): 1
- extent of growth (numerical code) ([1]; oxacillin 0.5 μg/ml + compound 2 μg/ml): 1
- extent of growth (numerical code) ([1]; oxacillin 0.5 μg/ml + compound 4 μg/ml): 0
- extent of growth (numerical code) ([1]; oxacillin 0.5 μg/ml + compound 8 μg/ml): 0
- extent of growth (numerical code) ([1]; oxacillin 0.5 μg/ml + compound 16 μg/ml): 0
- extent of growth (numerical code) ([1]; oxacillin 1 μg/ml + compound 1 μg/ml): 1
- extent of growth (numerical code) ([1]; oxacillin 1 μg/ml + compound 2 μg/ml): 1
- extent of growth (numerical code) ([1]; oxacillin 1 μg/ml + compound 4 μg/ml): 0
- extent of growth (numerical code) ([1]; oxacillin 1 μg/ml + compound 8 μg/ml): 0
- extent of growth (numerical code) ([1]; oxacillin 1 μg/ml + compound 16 μg/ml): 0
- extent of growth (numerical code) ([1]; oxacillin 2 μg/ml + compound 1 μg/ml): 1
- extent of growth (numerical code) ([1]; oxacillin 2 μg/ml + compound 2 μg/ml): 0
- extent of growth (numerical code) ([1]; oxacillin 2 μg/ml + compound 4 μg/ml): 0
- extent of growth (numerical code) ([1]; oxacillin 2 μg/ml + compound 8 μg/ml): 0
- extent of growth (numerical code) ([1]; oxacillin 2 μg/ml + compound 16 μg/ml): 0
- extent of growth (numerical code) ([1]; oxacillin 4 μg/ml + compound 1 μg/ml): 1
- extent of growth (numerical code) ([1]; oxacillin 4 μg/ml + compound 2 μg/ml): 0
- extent of growth (numerical code) ([1]; oxacillin 4 μg/ml + compound 4 μg/ml): 0
- extent of growth (numerical code) ([1]; oxacillin 4 μg/ml + compound 8 μg/ml): 0
- extent of growth (numerical code) ([1]; oxacillin 4 μg/ml + compound 16 μg/ml): 0
- extent of growth (numerical code) ([1]; oxacillin 8 μg/ml + compound 1 μg/ml): 1
- extent of growth (numerical code) ([1]; oxacillin 8 μg/ml + compound 2 μg/ml): 0
- extent of growth (numerical code) ([1]; oxacillin 8 μg/ml + compound 4 μg/ml): 0
- extent of growth (numerical code) ([1]; oxacillin 8 μg/ml + compound 8 μg/ml): 0
- extent of growth (numerical code) ([1]; oxacillin 8 μg/ml + compound 16 μg/ml): 0
- extent of growth (numerical code) ([1]; oxacillin 16 μg/ml + compound 1 μg/ml): 0
- extent of growth (numerical code) ([1]; oxacillin 16 μg/ml + compound 2 μg/ml): 0
- extent of growth (numerical code) ([1]; oxacillin 16 μg/ml + compound 4 μg/ml): 0
- extent of growth (numerical code) ([1]; oxacillin 16 μg/ml + compound 8 μg/ml): 0
- extent of growth (numerical code) ([1]; oxacillin 16 μg/ml + compound 16 μg/ml): 0
- extent of growth (numerical code) ([1]; oxacillin 32 μg/ml + compound 1 μg/ml): 0
- extent of growth (numerical code) ([1]; oxacillin 32 μg/ml + compound 2 μg/ml): 0
- extent of growth (numerical code) ([1]; oxacillin 32 μg/ml + compound 4 μg/ml): 0
- extent of growth (numerical code) ([1]; oxacillin 32 μg/ml + compound 8 μg/ml): 0
- extent of growth (numerical code) ([1]; oxacillin 32 μg/ml + compound 16 μg/ml): 0
- extent of growth (numerical code) ([1]; oxacillin 64 μg/ml + compound 1 μg/ml): 0
- extent of growth (numerical code) ([1]; oxacillin 64 μg/ml + compound 2 μg/ml): 0
- extent of growth (numerical code) ([1]; oxacillin 64 μg/ml + compound 4 μg/ml): 0
- extent of growth (numerical code) ([1]; oxacillin 64 μg/ml + compound 8 μg/ml): 0
- extent of growth (numerical code) ([1]; oxacillin 64 μg/ml + compound 16 μg/ml): 0
- MIC [2]: 32 µg/mL (≈ 106 µM)
- MIC [3]: 32 µg/mL
- MIC [4]: 32 µg/mL (≈ 106 µM)
